According to the NIST ThermoML archive (doi:10.1016/j.jct.2017.08.004):

Experiment: molar heat capacity at constant pressure
Settings: 101.33 kPa

OC[C@@H](O)[C@@H](O)[C@H](O)[C@H](O)CO [D-mannitol]
molar heat capacity at constant pressure [J/K/mol]
Settings | Small sample (50 mg) DSC | relaxation calorimetry
289.15 K, Crystal | 223.23 | –
290 K, Crystal | – | 224.45
290.15 K, Crystal | 223.75 | –
291.15 K, Crystal | 224.51 | –
292.15 K, Crystal | 225.52 | –
292.3 K, Crystal | – | 226.18
293.15 K, Crystal | 226.11 | –
294.15 K, Crystal | 226.79 | –
295.15 K, Crystal | 227.7 | –
296.15 K, Crystal | 228.45 | –
297.15 K, Crystal | 229.12 | –
298.15 K, Crystal | 229.81 | 230.54
299.15 K, Crystal | 230.64 | –
300 K, Crystal | – | 231.93
300.15 K, Crystal | 231.67 | –
301.15 K, Crystal | 232.46 | –
302.15 K, Crystal | 233.28 | –
302.32 K, Crystal | – | 233.27
303.15 K, Crystal | 234.21 | –
304.15 K, Crystal | 235.1 | –
305 K, Crystal | 236.23 | –
305.15 K, Crystal | 236.24 | –
306.15 K, Crystal | 237.06 | –
307.15 K, Crystal | 238.05 | –
308.15 K, Crystal | 239.43 | –
309.15 K, Crystal | 240.22 | –
310 K, Crystal | 241.08 | –
310.15 K, Crystal | 241.1 | –
311.15 K, Crystal | 242.22 | –
312.15 K, Crystal | 243.21 | –
313.15 K, Crystal | 244.03 | –
314.15 K, Crystal | 244.96 | –
315 K, Crystal | 245.72 | –
315.15 K, Crystal | 245.76 | –
316.15 K, Crystal | 246.45 | –
317.15 K, Crystal | 247.23 | –
318.15 K, Crystal | 248.19 | –
319.15 K, Crystal | 249.13 | –
320 K, Crystal | 250.2 | –
320.15 K, Crystal | 250.01 | –
321.15 K, Crystal | 250.96 | –
322.15 K, Crystal | 251.62 | –
323.15 K, Crystal | 252.78 | –
324.15 K, Crystal | 253.84 | –
325 K, Crystal | 254.58 | –
325.15 K, Crystal | 254.69 | –
326.15 K, Crystal | 255.76 | –
327.15 K, Crystal | 256.67 | –
328.15 K, Crystal | 257.61 | –
329.15 K, Crystal | 258.51 | –
330 K, Crystal | 258.9 | –
330.15 K, Crystal | 259.36 | –
331.15 K, Crystal | 260.09 | –
332.15 K, Crystal | 260.73 | –
333.15 K, Crystal | 261.83 | –
334.15 K, Crystal | 262.7 | –
335 K, Crystal | 263.16 | –
335.15 K, Crystal | 263.13 | –
336.15 K, Crystal | 263.97 | –
337.15 K, Crystal | 264.87 | –
338.15 K, Crystal | 265.55 | –
339.15 K, Crystal | 266.62 | –
340 K, Crystal | 267.39 | –
340.15 K, Crystal | 267.34 | –
341.15 K, Crystal | 268.11 | –
342.15 K, Crystal | 269.07 | –
343.15 K, Crystal | 270.04 | –
344.15 K, Crystal | 271.03 | –
345 K, Crystal | 271.57 | –
345.15 K, Crystal | 272.18 | –
346.15 K, Crystal | 272.93 | –
347.15 K, Crystal | 273.5 | –
348.15 K, Crystal | 274.48 | –
349.15 K, Crystal | 275.36 | –
350 K, Crystal | 275.71 | –
350.15 K, Crystal | 275.83 | –
351.15 K, Crystal | 276.6 | –
352.15 K, Crystal | 277.59 | –
353.15 K, Crystal | 278.11 | –
354.15 K, Crystal | 278.88 | –
355 K, Crystal | 279.8 | –
355.15 K, Crystal | 279.75 | –
356.15 K, Crystal | 280.45 | –
357.15 K, Crystal | 281.3 | –
358.15 K, Crystal | 282.01 | –
359.15 K, Crystal | 282.77 | –
360 K, Crystal | 283.81 | –
360.15 K, Crystal | 283.45 | –
361.15 K, Crystal | 284.29 | –
362.15 K, Crystal | 285.29 | –
363.15 K, Crystal | 285.81 | –
364.15 K, Crystal | 286.87 | –
365 K, Crystal | 287.75 | –
365.15 K, Crystal | 287.69 | –
366.15 K, Crystal | 288.42 | –
367.15 K, Crystal | 289.35 | –
368.15 K, Crystal | 290.07 | –
369.15 K, Crystal | 290.83 | –
370 K, Crystal | 291.59 | –
370.15 K, Crystal | 291.54 | –
371.15 K, Crystal | 292.39 | –
372.15 K, Crystal | 293.2 | –
373.15 K, Crystal | 293.84 | –
374.15 K, Crystal | 294.5 | –
375 K, Crystal | 295.33 | –
375.15 K, Crystal | 295.14 | –
376.15 K, Crystal | 295.96 | –
377.15 K, Crystal | 296.71 | –
378.15 K, Crystal | 297.3 | –
379.15 K, Crystal | 297.95 | –
380 K, Crystal | 298.96 | –
380.15 K, Crystal | 298.84 | –
381.15 K, Crystal | 299.49 | –
382.15 K, Crystal | 300.09 | –
383.15 K, Crystal | 300.96 | –
384.15 K, Crystal | 301.85 | –
385 K, Crystal | 302.49 | –
385.15 K, Crystal | 302.62 | –
386.15 K, Crystal | 303.19 | –
387.15 K, Crystal | 303.89 | –
388.15 K, Crystal | 304.75 | –
389.15 K, Crystal | 305.62 | –
390 K, Crystal | 305.94 | –
390.15 K, Crystal | 306.4 | –
391.15 K, Crystal | 307.13 | –
392.15 K, Crystal | 307.69 | –
393.15 K, Crystal | 308.43 | –
394.15 K, Crystal | 309.27 | –
395 K, Crystal | 309.33 | –
395.15 K, Crystal | 309.91 | –
396.15 K, Crystal | 310.41 | –
397.15 K, Crystal | 311.05 | –
398.15 K, Crystal | 311.45 | –
399.15 K, Crystal | 312.11 | –
400 K, Crystal | 312.71 | –
400.15 K, Crystal | 312.88 | –
401.15 K, Crystal | 313.5 | –
402.15 K, Crystal | 314.14 | –
403.15 K, Crystal | 315.02 | –
404.15 K, Crystal | 315.76 | –
405 K, Crystal | 316.13 | –
405.15 K, Crystal | 316.19 | –
406.15 K, Crystal | 317 | –
407.15 K, Crystal | 317.55 | –
408.15 K, Crystal | 318.33 | –
409.15 K, Crystal | 319.11 | –
410 K, Crystal | 319.66 | –
410.15 K, Crystal | 319.62 | –
411.15 K, Crystal | 320.34 | –
412.15 K, Crystal | 321.09 | –
413.15 K, Crystal | 321.71 | –
414.15 K, Crystal | 322.33 | –
415 K, Crystal | 323.4 | –
415.15 K, Crystal | 323.11 | –
416.15 K, Crystal | 323.76 | –
417.15 K, Crystal | 324.47 | –
418.15 K, Crystal | 325.49 | –
419.15 K, Crystal | 326.12 | –
420 K, Crystal | 327.48 | –
420.15 K, Crystal | 327.06 | –
421.15 K, Crystal | 327.89 | –
422.15 K, Crystal | 328.71 | –
423.15 K, Crystal | 329.87 | –
424.15 K, Crystal | 330.92 | –
425 K, Crystal | 332.03 | –
425.15 K, Crystal | 332.36 | –
458.15 K, Liquid | 511.69 | –
459.15 K, Liquid | 511.2 | –
460 K, Liquid | 511.26 | –
460.15 K, Liquid | 510.98 | –
461.15 K, Liquid | 510.64 | –
462.15 K, Liquid | 510.47 | –
463.15 K, Liquid | 510.51 | –
464.15 K, Liquid | 510.42 | –
465 K, Liquid | 511.16 | –
465.15 K, Liquid | 510.6 | –
466.15 K, Liquid | 510.6 | –
467.15 K, Liquid | 510.56 | –
468.15 K, Liquid | 510.86 | –
469.15 K, Liquid | 511.11 | –
470 K, Liquid | 511.05 | –
470.15 K, Liquid | 511.08 | –
471.15 K, Liquid | 511.49 | –
472.15 K, Liquid | 511.38 | –
473.15 K, Liquid | 511.18 | –
474.15 K, Liquid | 511.09 | –
475 K, Liquid | 510.95 | –
475.15 K, Liquid | 510.93 | –
476.15 K, Liquid | 510.9 | –
477.15 K, Liquid | 510.87 | –
478.15 K, Liquid | 510.67 | –
479.15 K, Liquid | 510.62 | –
480 K, Liquid | 510.84 | –
480.15 K, Liquid | 510.66 | –
481.15 K, Liquid | 510.52 | –
482.15 K, Liquid | 510.71 | –
483.15 K, Liquid | 510.62 | –
484.15 K, Liquid | 510.5 | –
485 K, Liquid | 510.74 | –
485.15 K, Liquid | 510.63 | –
486.15 K, Liquid | 510.59 | –
487.15 K, Liquid | 510.6 | –
488.15 K, Liquid | 510.74 | –
490 K, Liquid | 510.64 | –
